One may read the IC50 as the concentration that gives 50% inhibition.

The target of the first assay is T1, RORc ligand binding domain (Homo sapiens, UniProt P51449).
T1 sequence (P51449 269-508 limits assumed): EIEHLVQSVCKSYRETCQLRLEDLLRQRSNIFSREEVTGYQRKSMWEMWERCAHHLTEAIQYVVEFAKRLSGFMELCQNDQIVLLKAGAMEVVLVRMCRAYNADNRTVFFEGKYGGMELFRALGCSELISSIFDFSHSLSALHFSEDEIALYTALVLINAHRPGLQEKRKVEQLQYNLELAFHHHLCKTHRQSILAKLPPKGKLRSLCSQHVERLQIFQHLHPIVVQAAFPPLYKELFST
Nature of the assay: In vitro RORc ligand binding assay (25-[3H]hydroxycholesterol displacement).
Settings: not given
`Cc1nnc(C2(c3ccc(CN4[C@@H](C)CC[C@H](c5ccccc5)S4(=O)=O)c(F)c3)CCOCC2)o1` [Example 43, (3S,6R)-2-[[2-fluoro-4-[4-(5-methyl-1,3,4-oxadiazol-2-yl)tetrahydropyran-4-yl]phenyl]methyl]-3-methyl-6-phenyl-thiazinane 1,1-dioxide]: the IC50 is 142 nM.
Same read-out and setting: for `C[C@H]1CC[C@H](c2ccccc2)S(=O)(=O)N1Cc1cc(F)c(C2(NCc3ccn[nH]3)CCOCC2)cc1F` [Example 73, 4-[2,5-difluoro-4-[[(3S,6R)-3-methyl-1,1-dioxo-6-phenyl-thiazinan-2-yl]methyl]phenyl]-N-(1H-pyrazol-5-ylmethyl)tetrahydropyran-4-amine] the value was 2.9 nM.
Still for that read-out and setting: for `Cc1cc(N)nn1C(=O)C1(c2ccc(CN3[C@@H](C)CC[C@H](c4ccccc4)S3(=O)=O)c(F)c2)CCOCC1` [Example 21, (3-amino-5-methyl-pyrazol-1-yl)-[4-[3-fluoro-4-[[(3S,6R)-3-methyl-1,1-dioxo-6-phenyl-thiazinan-2-yl]methyl]phenyl]tetrahydropyran-4-yl]methanone] the value was 1.9 nM; for `C[C@H]1CC[C@H](c2ccccc2)S(=O)(=O)N1Cc1cc(F)c([C@]2(c3nn(C)c(=O)o3)C[C@H](O)C2)cc1F` [Example 147, trans 5-[1-[2,5-difluoro-4-[[(3S,6R)-3-methyl-1,1-dioxo-6-phenyl-thiazinan-2-yl]methyl]phenyl]-3-hydroxy-cyclobutyl]-3-methyl-1,3,4-oxadiazol-2-one], 4.6 nM.
The same measure, in the same setting: under `C[C@H]1CC[C@H](c2ccccc2)S(=O)(=O)N1Cc1cc(F)c([C@]2(c3n[nH]c(=O)o3)C[C@@H]2CO)cc1F` [Example 150, 5-[(1S,2S)-1-[2,5-difluoro-4-[[(3S,6R)-3-mcthyl-1,1-dioxo-6-phenyl-thiazinan-2-yl]methyl]phenyl]-2-(hydroxymethyl)cyclopropyl]-3H-1,3,4-oxadiazol-2-one] stands 39 nM.
Turning to `C[C@H]1CC[C@H](c2ccccc2)S(=O)(=O)N1Cc1cc(F)c([C@]2(c3nn(C)c(=O)[nH]3)C[C@@](C)(O)C2)cc1F` (racemic) [Example 168, 5-[1-[2,5-difluoro-4-[[rac-(3S,6R)-3-methyl-1,1-dioxo-6-phenyl-thiazinan-2-yl]methyl]phenyl]-3-hydroxy-3-methyl-cyclobutyl]-2-methyl-4H-1,2,4-triazol-3-one], the half-maximal inhibitory concentration (IC50) was found to be 39.8 nM.
Still for that read-out and setting: under `Cc1cc(N)n(C(=O)C2(c3ccc(CN4[C@@H](C)CC[C@H](c5ccccc5)S4(=O)=O)c(F)c3)CCOCC2)n1` [Example 19] stands 12.3 nM.
The same measure, in the same setting: under `C[C@H]1CC[C@H](c2ccccc2)S(=O)(=O)N1Cc1cc(F)c(C2(c3n[nH]c(=O)o3)CC(F)(F)C2)cc1F` [Example 126, 5-[1-[2,5-difluoro-4-[[(3S,6R)-3-methyl-1,1-dioxo-6-phenyl-thiazinan-2-yl]methyl]phenyl]-3,3-difluoro-cyclobutyl]-3H-1,3,4-oxadiazol-2-one] stands 2.7 nM; under `C[C@H]1CC[C@H](c2ccccc2)S(=O)(=O)N1Cc1ccc(C2(CN3CCOCC3)CCOCC2)cc1F` [Example 24], 11.1 nM; under `COC1(OC)CC(c2nnc[nH]2)(c2cc(F)c(CN3[C@@H](C)CC[C@H](c4ccccc4)S3(=O)=O)cc2F)C1` [Example 112, (3S,6R)-2-[[4-[3,3-dimethoxy-1-(4H-1,2,4-triazol-3-yl)cyclobutyl]-2,5-difluoro-phenyl]methyl]-3-methyl-6-phenyl-thiazinane 1,1-dioxide], 4.6 nM.
The same measure, in the same setting: for `Cc1cc(C(=O)NC2(c3cc(F)c(CN4[C@@H](C)CC[C@H](c5ccccc5)S4(=O)=O)cc3F)CCOCC2)no1` [Example 93, N-[4-[2,5-difluoro-4-[[(3,6R)-3-methyl-1,1-dioxo-6-phenyl-thiazinan-2-yl]methyl]phenyl]tetrahydropyran-4-yl]-5-methyl-isoxazole-3-carboxamide] the value was 44 nM; for `C[C@H]1CC[C@H](c2ccccc2)S(=O)(=O)N1Cc1cc(F)c(C2(NCc3ncnn3C)COC2)cc1F` [Example 87, 3-[2,5-difluoro-4-[[(3S,6R)-3-methyl-1,1-dioxo-6-phenyl-thiazinan-2-yl]methyl]phenyl]-N-[(2-methyl-1,2,4-triazol-3-yl)methyl]oxetan-3-amine], 8 nM; for `C[C@H]1CC[C@H](c2ccccc2)S(=O)(=O)N1Cc1ccc(C2(OCc3nnc[nH]3)CCOCC2)cc1F` [Example 56, (3S,6R)-2-[[2-fluoro-4-[4-(4H-1,2,4-triazol-3-ylmethoxy)tetrahydropyran-4-yl]phenyl]methyl]-3-methyl-6-phenyl-thiazinane 1,1-dioxide], 7.2 nM.
Consider `C[C@H]1CC[C@H](c2ccccc2)S(=O)(=O)N1Cc1cc(F)c([C@]2(c3noc(=O)[nH]3)C[C@@](C)(O)C2)cc1F` (racemic) [Example 175, 3-[1-[2,5-difluoro-4-[[rac-(3S,6R)-3-methyl-1,1-dioxo-6-phenyl-thiazinan-2-yl]methyl]phenyl]-3-hydroxy-3-methyl-cyclobutyl]-4H-1,2,4-oxadiazol-5-one], for which the 50% inhibitory concentration (IC50) was found to be 62 nM.
`C[C@H]1CC[C@H](c2ccccc2)S(=O)(=O)N1Cc1cc(F)c(C2(N3CC(=O)NC3=O)COC2)cc1F` [Example 117, 1-[3-[2,5-difluoro-4-[[(3S,6R)-3-methyl-1,1-dioxo-6-phenyl-thiazinan-2-yl]methyl]phenyl]oxetan-3-yl]imidazolidine-2,4-dione] showed a concentration for half-maximal inhibition (IC50) of 25.9 nM.
With `C[C@H]1CC[C@H](c2ccccc2)S(=O)(=O)N1Cc1cc(F)c(C2(c3nc(CO)co3)CCOCC2)cc1F` [Example 74, [2-[4-[2,5-difluoro-4-[[(3S,6R)-3-methyl-1,1-dioxo-6-phenyl-thiazinan-2-yl]methyl]phenyl]tetrahydropyran-4-yl]oxazol-4-yl]methanol], the half-inhibitory concentration (IC50) is 12.8 nM.
Same read-out and setting: under `C[C@H]1CC[C@H](c2ccccc2)S(=O)(=O)N1Cc1ccc(C2(n3cnnc3)CCOCC2)cc1F` [Example 45, (3S,6R)-2-[[2-fluoro-4-[4-(1,2,4-triazol-4-yl)tetrahydropyran-4-yl]phenyl]methyl]-3-methyl-6-phenyl-thiazinane 1,1-dioxide] stands 87.7 nM; under `C[C@H]1CC[C@H](c2ccccc2)S(=O)(=O)N1Cc1cc(F)c(C2(OCc3nnc[nH]3)CC3(COC3)C2)cc1F` [Example 122, (3S,6R)-2-[[2,5-difluoro-4-[6-(4H-1,2,4-triazol-3-ylmethoxy)-2-oxaspiro[3.3]heptan-6-yl]phenyl]methyl]-3-methyl-6-phenyl-thiazinane 1,1-dioxide], 2.7 nM; under `C[C@H]1CC[C@H](c2ccccc2)S(=O)(=O)N1Cc1cc(F)c(C2(NC(=O)c3cocn3)CCOCC2)cc1F` [Example 80, N-[4-[2,5-difluoro-4-[[(3S,6R)-3-methyl-1,1-dioxo-6-phenyl-thiazinan-2-yl]methyl]phenyl]tetrahydropyran-4-yl]oxazole-4-carboxamide], 4.8 nM.
Turning to `C[C@H]1CC[C@H](c2ccccc2)S(=O)(=O)N1Cc1ccc(C2(c3nc(C4CC4)no3)CCOCC2)cc1F` [Example 23], the concentration for half-maximal inhibition (IC50) was 14.3 nM.
Same read-out and setting: for `C[C@H]1CC[C@H](c2ccccc2)S(=O)(=O)N1Cc1cc(F)c(C2(C(=O)NCC3COC3)CCOCC2)cc1F` [Example 346, 4-[2,5-difluoro-4-[[(3S,6R)-3-methyl-1,1-dioxo-6-phenyl-thiazinan-2-yl]methyl]phenyl]-N-(oxetan-3-ylmethyl)tetrahydropyran-4-carboxamide] the value was 47.4 nM; for `COC[C@]1(O)C[C@@](c2n[nH]c(=O)o2)(c2cc(F)c(CN3[C@@H](C)CC[C@H](c4ccccc4)S3(=O)=O)cc2F)C1` (racemic) [Example 169, 5-[1-[2,5-difluoro-4-[[rac-(3S,6R)-3-methyl-1,1-dioxo-6-phenyl-thiazinan-2-yl]methyl]phenyl]-3-hydroxy-3-(methoxymethyl)cyclobutyl]-3H-1,3,4-oxadiazol-2-one], 6.4 nM; for `C[C@H]1CC[C@H](c2ccccc2)S(=O)(=O)N1Cc1ccc(C2(C(=O)n3nccc3N)CCOCC2)cc1F`, 19.6 nM.
On the same count and under the same terms, under `C[C@H]1CC[C@H](c2ccccc2)S(=O)(=O)N1Cc1cc(F)c(C2(NCc3ccon3)COC2)cc1F` [Example 103, 3-[2,5-difluoro-4-[[(3S,6R)-3-methyl-1,1-dioxo-6-phenyl-thiazinan-2-yl]methyl]phenyl]-N-(isoxazol-3-ylmethyl)oxetan-3-amine] stands 1.5 nM; under `C[C@H]1CC[C@H](c2ccccc2)S(=O)(=O)N1Cc1cc(F)c(C2(NC(=O)c3ncc[nH]3)COC2)cc1F` (stereo in doubt) [Example 133, N-[3-[2,5-difluoro-4-[[(3S,6R)-3-methyl-1,1-dioxo-6-phenyl-thiazinan-2-yl]methyl]phenyl]oxetan-3-yl]-1H-imidazole-2-carboxamide], 133 nM.
On the same count and under the same terms, for `C[C@H]1CC[C@H](c2ccccc2)S(=O)(=O)N1Cc1cc(F)c([C@]2(c3c[nH]c(=O)[nH]3)C[C@](C)(O)C2)cc1F` (racemic) [Example 185, 4-[1-[2,5-difluoro-4-[[rac-(3S,6R)-3-methyl-1,1-dioxo-6-phenyl-thiazinan-2-yl]methyl]phenyl]-3-hydroxy-3-methyl-cyclobutyl]-1,3-dihydroimidazol-2-one] the value was 19 nM; for `C[C@H]1CC[C@H](c2ccccc2)S(=O)(=O)N1Cc1ccc(C2(C(=O)NCc3cnccn3)CCOCC2)cc1F` [Example 10], 173 nM.

Staying with this assay, now noted: IC50 values for RORc.
“cis 5-[1-[2,5-difluoro-4-[[(3S,6R)-3- methyl-1,1-dioxo-6-phenyl-thiazinan-2- yl]methyl]phenyl]-3-hydroxy-3- (trifluoromethyl)cyclobutyl]-3H-1,3,4- oxadiazol-2-one [Example 148]” yielded an IC50 of 11 nM.
